Where “and” joins values, the source holds several entries; their conditions need not be identical. Equal entries are not always repeated. Structures can show the parent of a compound that is named as a salt.

As a reminder, the melting point is the temperature of the solid-liquid transition. In turn, `O=C(N[C@H](Cc1ccccc1)C(=O)O)OCc1nc2cc(-c3ccccc3)ccc2o1` (as salt: ammonium) [Compound 53, (R)-3-phenyl-2-(5-phenyl-benzoxazol-2-ylmethoxycarbonylamino) propionic acid] registered a melting point of 150.9 to 152.7 °C.

Consider `O=C(N[C@H](Cc1ccccc1)C(=O)O)OCC1Cc2cc(-c3ccccc3)ccc2O1` (stereo partly drawn) (as salt: salt) [Compound 68, (R)-3-Phenyl-2-(5-phenyl-2,3-dihydro-benzofuran-2-ylmethoxycarbonylamino)-propionic acid], for which the melting point is 176.3 to 182 °C.

`O=C(N[C@H](Cc1ccccc1)C(=O)O)OCc1cc2cc(-c3cccc4[nH]ccc34)ccc2o1` (as salt: salt) [Compound 137, (R)-2-[5-(1H-indol-4-yl)-benzofuran-2-ylmethoxycarbonylamino]-3-phenyl-propionic acid] yielded a melting point of 100 to 106 °C. Under `O=C(N[C@H](Cc1ccccc1)C(=O)O)OCc1cc2cc(-c3ccc(F)cc3)ccc2o1` (hydrate or solvate) [Compound 91, (R)-2-[5-(4-fluoro-phenyl)-benzofuran-2-ylmethoxycarbonylamino]-3-phenyl-propionic acid] stands 129.5 to 131.5 °C; under `COc1ccc(-c2ccc3oc(COC(=O)N[C@H](Cc4ccccc4)C(=O)O)cc3c2)cc1` (hydrate or solvate) [Compound 92, (R)-2-[5-(4-methoxy-phenyl)-benzofuran-2-ylmethoxycarbonylamino]-3-phenyl-propionic acid], 132 to 156.1 °C. In turn, `O=C(N[C@H](Cc1ccccc1)C(=O)O)OCc1cc2cc(-c3ccc(Cl)cc3)ccc2o1` (hydrate or solvate) [Compound 94, (R)-2-[5-(4-chloro-phenyl)-benzofuran-2-ylmethoxycarbonylamino]-3-phenyl-propionic acid] yielded a melting point of 129.5 to 144 °C. Under `Cc1ccc(-c2ccc3oc(COC(=O)N[C@H](Cc4ccccc4)C(=O)O)cc3c2)cc1` (hydrate or solvate) [Compound 95, (R)-2-[5-(4-methyl-phenyl)-benzofuran-2-ylmethoxycarbonylamino]-3-phenyl-propionic acid] stands 151 to 154 °C; under `N#Cc1cccc(-c2ccc3oc(COC(=O)N[C@H](Cc4ccccc4)C(=O)O)cc3c2)c1` (hydrate or solvate) [Compound 96, (R)-2-[5-(3-cyano-phenyl)-benzofuran-2-ylmethoxycarbonylamino]-3-phenyl-propionic acid], 64 to 68.5 °C. The compound `O=C(N[C@H](Cc1ccccc1)C(=O)O)OCc1cc2cc(-c3ccc4c(c3)OCO4)ccc2o1` (hydrate or solvate) [Compound 97, (R)-2-(5-benzo[1,3]dioxol-5-yl-benzofuran-2-ylmethoxycarbonylamino)-3-phenyl-propionic acid] showed a melting point of 125 to 131 °C. For `O=C(N[C@H](Cc1ccccc1)C(=O)O)OCc1cc2cc(-c3ccccc3F)ccc2o1` (hydrate or solvate) [Compound 98, (R)-2-[5-(2-fluoro-phenyl)-benzofuran-2-ylmethoxycarbonylamino]-3-phenyl-propionic acid] the value was 97.1 to 100.8 °C; for `O=C(N[C@H](Cc1ccc(F)cc1)C(=O)O)OCc1cc2cc(-c3ccccc3)ccc2o1` (hydrate or solvate) [Compound 105, (R)-3-(4-fluoro-phenyl)-2-(5-phenylbenzofuran-2-ylmethoxycarbonylamino)-propionic acid], 131.5 to 135 °C; for `O=C(N[C@H](Cc1ccc(F)cc1)C(=O)O)OCc1cc2cc(-c3ccc(F)cc3)ccc2o1` (hydrate or solvate) [Compound 111, (R)-3-(4-fluoro-phenyl)-2-[5-(4-fluorophenyl)-benzofuran-2-ylmethoxycarbonylamino]-propionic acid], 158 to 162 °C.

As to `N#Cc1cccc(-c2ccc3oc(COC(=O)N[C@H](Cc4ccc(F)cc4)C(=O)O)cc3c2)c1` (hydrate or solvate) [Compound 112, (R)-2-[5-(3-cyano-phenyl)-benzofuran-2-ylmethoxycarbonylamino]-3-(4-fluoro-phenyl)-propionic acid], the melting point fell in the range of 84 to 87.5 °C. For `O=C(N[C@H](Cc1ccc(F)cc1)C(=O)O)OCc1cc2cc(-c3cccnc3)ccc2o1` (hydrate or solvate) [Compound 125, (R)-3-(4-fluoro-phenyl)-2-(5-pyridin-3-yl-benzofuran-2-ylmethoxycarbonylamino)-propionic acid] the value was 176.9 to 178.4 °C; for `COc1cccc(OCc2ccc(COC(=O)NC(Cc3ccccc3)C(=O)O)cc2)c1` (stereo not shown) (hydrate or solvate) [Compound 154, 2-[4-(3-methoxy-phenoxymethyl)-benzyloxycarbonylamino]-3-phenyl-propionic acid], 62.5 to 64.8 °C. Under `O=C(N[C@H](Cc1ccccc1)C(=O)O)OCc1ccc(COc2ccccc2)cc1` [Compound 7, (R)-2-(4-Phenoxymethyl-benzyloxycarbonylamino)-3-phenyl-propionic acid] stands 115.9 to 116.7 °C; under `O=C(N[C@H](Cc1ccccc1)C(=O)O)OCc1cc2cc(-c3ccccc3)ccc2o1` [Compound 19, (R)-2-(5-Phenyl-benzofuran-2-ylmethoxycarbonylamino)-3-phenyl-propionic acid], 154 to 156 °C; under `O=C(N[C@H](Cc1ccccc1)C(=O)O)OCc1ccc2oc(-c3ccccc3)cc2c1` [Compound 29, (R)-3-Phenyl-2-(2-phenyl-benzofuran-5-ylmethoxycarbonylamino)-propionic acid], 172.8 to 173.5 °C.

For `O=C(NC(Cc1ccccc1)C(=O)O)OCc1ccc(COc2cccc3[nH]ccc23)cc1` (stereo not shown) [Compound 41, 2-[4-(1H-indol-4-yloxymethyl)-benzyloxycarbonylamino]-3-phenyl-propionic acid], the melting point is 106.8 to 108.2 °C and 105.9 to 108.5 °C. For `O=C(NC(Cc1ccccc1)C(=O)O)OCc1ccc(CCOc2ccccc2)cc1` (stereo not shown) [Compound 73, 2-[4-(2-Phenoxy-ethyl)-benzyloxycarbonylamino]-3-phenyl-propionic acid] the value was 150.2 to 152.4 °C. Under `COc1ccccc1OCc1ccc(COC(=O)NC(Cc2ccccc2)C(=O)O)cc1` (stereo not shown) [Compound 74, 2-[4-(2-methoxy-phenoxymethyl)-benzyloxycarbonylamino]-3-phenyl propionic acid] stands 92.6 to 93.5 °C; under `O=C(NC(Cc1ccccc1)C(=O)O)OCc1ccc(COc2ccccc2F)cc1` (stereo not shown) [Compound 75, 2-[4-(2-fluoro-phenoxymethyl)-benzyloxycarbonylamino]-3-phenyl-propionic acid], 114 to 117 °C; under `O=C(NC(Cc1ccccc1)C(=O)O)OCc1ccc(COc2cccc(F)c2)cc1` (stereo not shown) [Compound 76, 2-[4-(3-fluoro-phenoxymethyl)-benzyloxycarbonylamino]-3-phenyl-propionic acid], 107.9 to 110 °C.

As to `CS(=O)(=O)Nc1cccc(OCc2ccc(COC(=O)N[C@H](Cc3ccccc3)C(=O)O)cc2)c1` [Compound 77, (R)-2-[4-(3-methanesulfonylamino-phenoxymethyl)-benzyloxycarbonylamino]-3-phenyl-propionic acid], the melting point is 161.9 to 164.9 °C. For `O=C(N[C@H](Cc1ccccc1)C(=O)O)OCc1ccc(COc2cccc(NS(=O)(=O)c3ccccc3)c2)cc1` [Compound 78, (R)-2-[4-(3-benzenesulfonylamino-phenoxymethyl)-benzyloxycarbonylamino]-3-phenyl-propionic acid] the value was 96.6 to 98.6 °C; for `CC(=O)Nc1cccc(OCc2ccc(COC(=O)N[C@H](Cc3ccccc3)C(=O)O)cc2)c1` [Compound 79, (R)-2-[4-(3-acetylamino-phenoxymethyl)-benzyloxycarbonylamino]-3-phenyl-propionic acid], 190.3 to 193.5 °C; for `O=C(N[C@H](Cc1ccccc1)C(=O)O)OCc1ccc(COc2cccc([N+](=O)[O-])c2)cc1` [Compound 80, (R)-2-[4-(3-nitro-phenoxymethyl)-benzyloxycarbonylamino]-3-phenyl-propionic acid], 160.8 to 161.7 °C. For `O=C(N[C@H](Cc1ccccc1)C(=O)O)OCc1ccc(COc2cccc(NC(=O)c3ccccc3)c2)cc1` [Compound 81, (R)-3-phenyl-2-(4-{3-[(1-phenyl-methanoyl)-amino]-phenoxymethyl}-benzyloxycarbonylamino)-propionic acid] the value was 161.9 to 163.7 °C; for `O=C(NC(Cc1ccccc1)C(=O)O)OCc1ccc(COc2ccccc2)c(F)c1` (stereo not shown) [Compound 82, 2-(3-fluoro-4-phenoxymethyl-benzyloxycarbonylamino)-3-phenyl-propionic acid], 104.2 to 104.7 °C.

With `O=C(NC(Cc1cccc(NS(=O)(=O)c2ccccc2)c1)C(=O)O)OCc1ccc(COc2ccccc2)cc1` (stereo not shown) [Compound 83, 3-(3-benzenesulfonylamino-phenyl)-2-(4-phenoxymethyl-benzyloxycarbonylamino)-propionic acid], the melting point is 129.7 to 130.3 °C. For `O=C(Cc1ccc(OCc2ccccc2)cc1)NC(Cc1ccccc1)C(=O)O` (stereo not shown) [Compound 84, 2-(4-benzyloxybenzylcarbonylamino)-3-phenyl-propionic acid] the value was 118.3 to 119.9 °C.

`O=C(NC(Cc1ccccc1)C(=O)O)OCc1ccc(OCc2ccc(F)cc2)cc1` (stereo not shown) [Compound 85, 2-[4-(4-fluoro-benzyloxy)-benzyloxycarbonylamino]-3-phenyl-propionic acid]: the melting point lay in the range of 134 to 138 °C. Under `O=C(NC(Cc1ccccc1)C(=O)O)OCc1ccc(OCCc2ccccc2)cc1` (stereo not shown) [Compound 86, 2-(4-phenethyloxy-benzyloxycarbonylamino)-3-phenyl-propionic acid] stands 96.9 to 97.4 °C; under `O=C(N[C@H](Cc1ccccc1)C(=O)O)OCc1ccc(OCCCc2ccccc2)cc1` [Compound 87, (R)-3-phenyl-2-[4-(3-phenyl-propoxy)-benzyloxycarbonylamino]-propionic acid], 105.6 to 106.5 °C.

These data come from patent US7056903B2, “Carboxylic acid derivatives as IP antagonists” (Syntex (U.S.A.) LLC, priority 2000, dated 2006).
